In PubChem BioAssay AID449764 (Southern Research Specialized Biocontainment Screening …, 2010):

System: Mycobacterium tuberculosis H37Rv growth inhibition, no glycerol
Test: Mycobacterium tuberculosis H37Rv growth inhibition, no glycerol, confirmatory dose response (AID 449764);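 further: growth read after 7 days of incubation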
Conditions: for IC90: measured here: IC90 growth inhibition

| SMILES | IC50 [µM] | IC90 [µM] |
| --- | --- | --- |
| CCCCn1c(SCc2ncc(-c3ccccc3)o2)nc2cc(S(N)(=O)=O)ccc21 | 5.25 | 8.34 |
| COc1ccc(CN2CCCC(C(=O)c3ccc(SC)cc3)C2)cc1Cn1cccn1 (stereo not drawn) | 25.2 | 28.2 |
| O=C(CCl)Nc1cn(-c2ccccc2)nc1-c1ccccc1 | 0.5 | 1.23 |
| CC(C)Cc1ccc(C(C)C(N)=NCCc2ccccc2)cc1 (stereo not drawn) | 24.1 | 27.8 |
| CCCCNc1nc(N(C)c2ccccc2)nc(-n2ccnc2)n1 |  | > 100 |
| CCCOC(=O)/C(=C\c1ccc([N+](=O)[O-])o1)NC(=O)c1ccccc1 | 24.2 | > 100 |
| CC1CCCCC1NC(=O)c1ccc2c(c1)[nH]c(=O)n2C1CCCC1 (stereo not drawn) | 9.65 | 14.1 |
| O=C(NNc1nc(-c2ccccc2)cs1)c1ccccc1 | 40.2 | > 100 |
| COC(=O)Cn1nc(-c2ccccc2)c2cc(Cl)ccc21 | 22 | > 100 |
| O=C(CSc1nnc(-c2cccs2)o1)NCC1CN(Cc2ccccc2)CCO1 (stereo not drawn) | 20.7 | 25.5 |
| Cn1ccnc1C(=O)C1CCCN(Cc2cn[nH]c2-c2ccc(-c3ccccc3)cc2)C1 (stereo not drawn) | 77.1 | 99.4 |
| COc1ccc(C(C[N+](=O)[O-])c2c(-c3ccccc3)cc3ccccn23)c(OC)c1 (stereo not drawn) | 45.7 | 51.8 |
| COc1ccc(CN2CCN(C(c3ccc(F)cc3)c3ccc(F)cc3)CC2)c(OC)c1OC | 22.9 | 40.5 |
| CC(C)(C)c1ccc(C(=O)N2CCN(CCNC(=O)C(=O)NCc3ccc(Cl)cc3)CC2)cc1 | 24.7 | 46.7 |
| Cc1ccc(NC(=O)CSc2nc3ccccc3c(=O)n2CCCN2CCCCC2)cc1Cl | 36.6 | 79.2 |
| C(=C\c1nccc2c1[nH]c1ccccc12)/c1ccccc1 | 31.2 | 42.7 |
| Cc1nnc(SCc2ccccc2Cl)n(N)c1=O |  | > 100 |
| COc1ccc(C=C2C=C(C(C)(C)C)C(=O)C(C(C)(C)C)=C2)cc1OC | 4.94 | 7.13 |
| CC(C)OC(=O)/C(C#N)=C/c1ccc(-c2ccc(SC(F)F)cc2)o1 | 5.19 | 8.24 |
| CN(CCCNC(=O)c1cc2c(Cl)nc3ccccc3c2s1)Cc1ccccc1 | 55.7 | 91.1 |
| CC1(C)Cc2c(cnn2-c2ccccc2)-c2c1c1ccccc1n2CC(O)CCl (stereo not drawn) | 95.4 | > 100 |
| CCC(C)N1CCC2(CC1)N=c1c(c3c4c5c(C)c(O)c3c(O)c1=NC(=O)C(C)=CC=C[C@H](C)[C@H](O)[C@@H](C)[C@@H](O)[C@@H](C)[C@H](OC(C)=O)[C@H](C)[C@@H](OC)C=CO[C@@](C)(O5)C4=O)N2 (stereo partly drawn) | < 0.2 | < 0.2 |

| SMILES | IC50 [µM] | IC90 [µM] |
| --- | --- | --- |
| NNC(=S)NCc1ccc2c(c1)OCO2 | 99.3 | > 100 |
| O=C(Cc1ccc(Nc2nc3ccc(Br)cc3[nH]2)cc1)NCCc1cccs1 | 29.6 | 37 |
| O=C(Cc1ccccc1)N/N=C/c1ccc2cccc(O)c2n1 | 11.3 | 12.6 |
| CCOC(=O)CSc1nnc(NC(=O)c2ccc3c(c2)OCO3)s1 | 11.4 | 20.2 |
| Cc1ccc(/C=C/C(=O)N2CC(C)CC(C)C2)o1 (stereo not drawn) | 36.3 | 49.4 |
| CCOc1ccc(C(=O)CCN2CCCCCC2)cc1 | 23.7 | 26.2 |
| CS(=O)(=O)c1ccc([C@@H](O)[C@@H](CF)NC(=O)C(Cl)Cl)cc1 | 16.8 | 27.8 |
| O=C(OCC(=O)N1CCCc2ccccc21)c1ccc(S(=O)(=O)C(F)F)cc1 | 37.9 | 49.2 |
| COc1ccc(OC)c(CN2CCN(C(=O)CNC(=O)c3ccc(C(C)(C)C)cc3)CC2)c1 | 63.8 | 91.1 |
| CCOC(=O)CSc1cc(=O)n(C)c2cc(Cl)ccc12 | < 0.2 | 18.3 |
| CN(C(=S)NC(=O)c1ccc(Cl)cc1)C1CCCCC1 | 9.46 | 14.7 |
| COc1ccc(N/C=C/C(=O)c2sc(-c3ccccc3)nc2C)cc1 | 79.3 | > 100 |
| c1ccc(CN2CCN(c3nc(NCc4ccco4)c4ccccc4n3)CC2)cc1 | 17.2 | 22.6 |
| Cc1ccc(C)c(N/C(N)=N/c2nc(C)cc(C)n2)c1 | 7.67 | 12.7 |
| CC(C)Oc1ccc(-c2nc(NCC3CCCO3)c3ccccc3n2)cc1 (stereo not drawn) | 62.3 | 98.3 |
| Cc1cc(N/N=C2/CCCc3ccccc32)nc2ccccc12 | 41.9 | 45.6 |
| C/C(=N\NC(N)=S)C1C2C3CC4C5CC(C42)C1C53 (stereo not drawn) | 22.1 | 31.8 |
| CC1=NN(c2ccc(C)c(C)c2)C(=O)/C1=C\C=C\c1ccc([N+](=O)[O-])o1 | 10.9 | 17.7 |
| CN1CC=C(/C=C/c2ccc(-c3ccccc3)cc2)CC1 | 24.5 | 28 |
| Cc1cc(-c2cc(-c3ccccc3)on2)nc(NC2CCCC2)n1 | 34.5 | 56.6 |
| Cc1nn(-c2ccccc2)nc1C(=O)c1c(C)[nH]n(-c2ccccc2)c1=O | 17.5 | 23.2 |
| O=C(CCl)NCCCCCCCCCNC(=O)CCl | < 0.2 | > 100 |

| SMILES | IC50 [µM] | IC90 [µM] |
| --- | --- | --- |
| O=C(c1ccc(Cl)cc1)N1N=C(c2ccccn2)CC1(O)C(F)(F)F (stereo not drawn) | 25.7 | > 100 |
| O=[N+]([O-])c1ccc(O)c(-c2cc(C(F)(F)F)nc(-c3ccccc3)n2)c1 | 20.4 | 22.1 |
| CCOC(=O)c1cnc(SC2CCc3ccccc3C2=O)nc1N (stereo not drawn) | 87.1 | 96.5 |
| CCC[C@@H]1C[C@@H](C(=O)NC(C(C)Cl)[C@H]2O[C@H](SC)[C@H](O)[C@@H](O)[C@H]2O)N(C)C1 (stereo partly drawn) | 3.91 | 11.5 |
| OC(CNCC(c1ccc(Cl)cc1Cl)c1c[nH]c2ccccc12)c1ccccc1 (stereo not drawn) | 22.9 | 26.2 |
| O=[N+]([O-])c1ccc(S(=O)(=O)c2ccccc2)nc1 | 1.76 | 2.98 |
| COc1c(C)cc(C(=O)C2CCCN(Cc3ccccn3)C2)cc1C (stereo not drawn) | 20.2 | 29.7 |
| Cc1cc(C)c2ccc(NN)nc2c1O | 4.04 | 4.87 |
| N[C@@H](CCl)C(=O)O | 35.4 | 55.2 |
| COc1ccc(-c2cc3c(=O)n(CC(=O)NCCCN4CCC(Cc5ccccc5)CC4)ncn3n2)cc1 | 28.1 | 39.7 |
| O=C(CCl)N1CCN2C(=O)c3ccccc3C12c1ccc(Cl)cc1 (stereo not drawn) | 21.9 | 32.1 |
| CCOC(=O)c1cnc2ccc(OCC)cc2c1N1CCN(c2ccccc2)CC1 | 25.9 | 56.7 |
| O=C(CNC(=O)c1ccco1)OCc1ccc(C(=O)Oc2ccccc2)cc1 | 16.6 | 26.6 |
| Oc1ccccc1/C=N/Nc1ccnc(SCc2ccccc2)n1 | 2.69 | 2.95 |
| CCCCNC(=S)N/N=C/c1cccc(OCC)c1O | 10.8 | 11.9 |
| Cc1ccc(S(=O)(=O)NC(CC(C)C)C(=O)N2CCN(C/C=C/c3ccccc3)CC2)cc1 (stereo not drawn) | 66.4 | 90.2 |
| O=C(CCc1c[nH]c2ccccc12)N1CCN(S(=O)(=O)c2ccccc2)CC1 | 78.7 | > 100 |
| CC(C)(C)c1cc(-c2nc(N)nc(N)n2)c(O)c(C(C)(C)C)c1 | 90.4 | 96 |
| Ic1ccccc1CN[C@@H]1C2CCN(CC2)[C@@H]1C(c1ccccc1)c1ccccc1 | 28.9 | 42.7 |
| COC(=O)CC(=O)N1CCN(c2ccc(Cl)c(Cl)c2)CC1 | 44.4 | 74.8 |
| COc1ccc(C2CC(=O)C3=C(C2)NC(C)=C(C#N)C3c2ccc(N(C)C)cc2)cc1 (stereo not drawn) | 22.2 | 35.6 |
| CCCC(=O)Nc1ccc(C(=O)/C=C/c2ccc(SC)cc2)cc1 | 64.3 | 85.4 |

| SMILES | IC50 [µM] | IC90 [µM] |
| --- | --- | --- |
| c1ccc(C[C@H]2CN=C(Nc3ccccc3)N2CCCC2CCCC2)cc1 | 33.1 | 44.5 |
| O=C1NCC(c2ccccc2)C1C(=O)N/N=C\c1ccc(-c2ccc(Cl)c(Cl)c2)o1 (stereo not drawn) |  | > 100 |
| Cc1cc(Cl)ccc1NNC(=O)CCc1ccccc1 | 84.1 | > 100 |
| O=c1[nH]c(=O)n(Cc2ccccc2)c2nc(-c3ccc(Oc4ccc(F)cc4)c([N+](=O)[O-])c3)n(CCO)c12 | 50.5 | > 100 |
| COc1cccc(COC(=O)c2ccc3c(=O)n4c(nc3c2)CCC4)c1OC | 28.2 | 59 |
| CCOC(=O)c1sc2ncnc(NCC(c3cccs3)N(C)C)c2c1C (stereo not drawn) | 42 | 57 |
| CCCCCC(O)c1cccc(OCc2ccc3ccccc3n2)c1 (stereo not drawn) | 35.4 | 56 |
| CCOC(=O)C1=NOC(CNc2ncc(C(F)(F)F)cc2Cl)C1 (stereo not drawn) | 11.3 | 14.4 |
| Cc1ccc(OC(=O)c2oc3ccc(F)cc3c2C)c(C)c1 | 12 | 13.9 |
| O=[N+]([O-])c1cc(Cl)c(O)c(-[n+]2c(-c3ccccc3)cc(-c3ccccc3)cc2-c2ccccc2)c1 | 4.63 | 7.3 |
| CCOC(=O)CSC1=C(C#N)C(c2ccc(C)cc2)C2=C(CCCC2=O)N1 (stereo not drawn) | 46.6 | > 100 |
| CCOc1ccc(NC(=S)Nc2ccc(C)c([N+](=O)[O-])c2)cc1 | 27.7 | > 100 |
| CC(C)(C)OC(=O)NCCCCCc1nnc(SCc2ccc(F)cc2)o1 | 75 | > 100 |
| CCOC(=O)c1sc2nc3n(c(=O)c2c1C)CCC(C)CC3 (stereo not drawn) | 23 | 26.4 |
| O=C1c2ccccc2-c2onc3ccc(Oc4ccccc4)c1c23 | 10.3 | 14.4 |
| CO/N=C(\Cn1ncc(N2CCCC2)c(Cl)c1=O)c1ccc(Cl)cc1 | 23.7 | 26.9 |
| CC(=O)N(Cc1ccc(F)cc1)C1=C(NCCc2ccccc2)C(=O)c2ccccc2C1=O | 10.2 | 16.6 |
| COc1cccc(NC(=O)CNC(=O)Cn2cnc3sc4c(c3c2=O)CCCC4)c1 | 66.7 | > 100 |
| CCCOc1ccc(-c2cnc(SCC(N)=O)nc2N)cc1 | 42.3 | > 100 |
| CN(C)CCCN(C(=O)c1ccc([N+](=O)[O-])s1)c1nc2cc3c(cc2s1)OCCO3 | 35.8 | 62.2 |
| COc1ccc(C2=Nn3c(nnc3-c3ccccc3F)SC2)cc1OC1CCCC1 | 19.5 | 25.4 |
| CCCCCC(=O)NNC(=S)NC(=O)c1ccc([N+](=O)[O-])cc1 | 3.22 | 5.86 |
